{
  "source": "ChEMBL document CHEMBL5653633",
  "about": "“G1 cell cycle arrest and apoptosis are induced in NIH 3T3 cells by KN-93, an inhibitor of CaMK-II (the multifunctional Ca2+/CaM kinase)” (Cell Growth Differ, 1995)",
  "key": {"NIH3T3 [1]": {"system": "NIH3T3", "assay": "Induction of cell cycle arrest in mouse NIH3T3 cells by propidium iodide staining based flow cytometry analysis", "type": "toxicity"}, "NIH3T3 [2]": {"system": "NIH3T3", "assay": "(§1) Inhibition of CAMK-II in mouse NIH3T3 cells using autocamtide-2 as substrate […]", "type": "cell-based"}, "NIH3T3 [3]": {"system": "NIH3T3", "assay": "Inhibition of CAMK-II in mouse NIH3T3 cells assessed as decrease in cell number by MTT assay", "type": "cell-based"}, "NIH3T3 [4]": {"system": "NIH3T3", "assay": "Inhibition of CAMK-II in mouse NIH3T3 cells assessed as morphological changes at 10 to 24 uM incubated for 1 day in presence of fetal bovine serum by phase contrast microscopy analysis", "type": "cell-based", "conditions": "dose 10-24 µM"}, "NIH3T3 [5]": {"system": "NIH3T3", "assay": "Induction of cell cycle arrest in mouse NIH3T3 cells assessed as decreased accumulation of cells at G2 phase at 10 uM incubated for 1 to 3 days by propidium iodide staining based flow cytometry analysis", "type": "toxicity", "conditions": "nih3t3, 10 µM, time 1-3 day"}, "[6]": {"assay": "Inhibition of CAMK-II in mouse NIH3T3 cells assessed as growth inhibition incubated for 2 to 3 days by phase contrast microscopy analysis", "type": "cell-based"}, "NIH3T3 [7]": {"system": "NIH3T3", "assay": "Cytotoxicity against EGF stimulated mouse NIH3T3 cells assessed as growth inhibition incubated for 72 hrs by MTT assay", "type": "functional, cell-based", "conditions": "NIH3T3, 72 h"}, "NIH3T3 [8]": {"system": "NIH3T3", "assay": "Cytotoxicity against PDGF-BB stimulated mouse NIH3T3 cells assessed as growth inhibition incubated for 72 hrs by MTT assay", "type": "functional, cell-based", "conditions": "NIH3T3, 72 h"}, "NIH3T3 [9]": {"system": "NIH3T3", "assay": "Cytotoxicity against FGF stimulated mouse NIH3T3 cells assessed as growth inhibition at 5 to 25 uM incubated for 72 hrs by MTT assay", "type": "functional, cell-based", "conditions": "dose 5-25 µM"}, "NIH3T3 [10]": {"system": "NIH3T3", "assay": "Inhibition of CAMK-II in mouse NIH3T3 cells assessed as decrease in cell count at 24 uM incubated for 2 to 3 days in presence of fetal bovine serum by phase contrast microscopy analysis", "type": "cell-based", "conditions": "time 2-3 day"}, "NIH3T3 [11]": {"system": "NIH3T3", "assay": "Cytotoxicity against PDGF-BB stimulated mouse NIH3T3 cells assessed as growth inhibition at 5 to 25 uM incubated for 72 hrs by MTT assay", "type": "functional, cell-based", "conditions": "dose 5-25 µM"}, "NIH3T3 [12]": {"system": "NIH3T3", "assay": "Induction of cell cycle arrest in mouse NIH3T3 cells assessed as accumulation of cells at G2/M phase at 10 uM incubated for 44 hrs followed by compound washout for 22 hrs by propidium iodide staining based flow cytometry analysis", "type": "toxicity", "conditions": "nih3t3, 44 h"}, "NIH3T3 [13]": {"system": "NIH3T3", "assay": "Cytotoxicity against EGF stimulated mouse NIH3T3 cells assessed as growth inhibition at 5 to 25 uM incubated for 72 hrs by MTT assay", "type": "functional, cell-based", "conditions": "dose 5-25 µM"}, "NIH3T3 [14]": {"system": "NIH3T3", "assay": "Cytotoxicity against serum stimulated mouse NIH3T3 cells assessed as decrease in cell number at 2 uM incubated for 72 hrs by MTT assay relative to control", "type": "functional", "design": "scale not given: the % may be the effect or the level left"}, "NIH3T3 [15]": {"system": "NIH3T3", "assay": "Cytotoxicity against IGF-1 stimulated mouse NIH3T3 cells assessed as growth inhibition at 5 to 25 uM incubated for 72 hrs by MTT assay", "type": "functional, cell-based", "conditions": "dose 5-25 µM"}, "NIH3T3 [16]": {"system": "NIH3T3", "assay": "Cytotoxicity against FGF stimulated mouse NIH3T3 cells assessed as decrease in cell number at 2 uM incubated for 72 hrs by MTT assay relative to control", "type": "functional", "design": "scale not given: the % may be the effect or the level left"}, "NIH3T3 [17]": {"system": "NIH3T3", "assay": "Cytotoxicity against IGF-1 stimulated mouse NIH3T3 cells assessed as growth inhibition incubated for 72 hrs by MTT assay", "type": "functional, cell-based", "conditions": "NIH3T3, 72 h"}, "NIH3T3 [18]": {"system": "NIH3T3", "assay": "Inhibition of CAMK-II in mouse NIH3T3 cells assessed as decrease in cell number at 16 to 24 uM incubated for 3 days by MTT assay", "type": "cell-based", "conditions": "dose 16-24 µM, time 3.0 day"}, "NIH3T3 [19]": {"system": "NIH3T3", "assay": "Induction of cell cycle arrest in mouse NIH3T3 cells assessed as accumulation of cells at S phase at 10 uM incubated for 44 hrs followed by compound washout for 22 hrs by propidium iodide staining based flow cytometry analysis", "type": "toxicity", "conditions": "nih3t3, 44 h"}, "NIH3T3 [20]": {"system": "NIH3T3", "assay": "Cytotoxicity against serum stimulated mouse NIH3T3 cells assessed as inhibition of cell growth incubated for 72 hrs by MTT assay", "type": "functional, cell-based", "conditions": "NIH3T3, 72 h"}, "[21]": {"assay": "as §1", "type": "cell-based"}, "NIH3T3 [22]": {"system": "NIH3T3", "assay": "Inhibition of CAMK-II in mouse NIH3T3 cells assessed as inhibition of cell growth at 4 to 8 uM incubated for 3 days by MTT assay", "type": "cell-based", "conditions": "dose 4-8 µM, time 3.0 day"}, "NIH3T3 [23]": {"system": "NIH3T3", "assay": "Inhibition of CAMK-II in mouse NIH3T3 cells assessed as cell growth rate after compound rinsing at 4 to 16 uM incubated for 6 to 48 hrs by MTT assay", "type": "cell-based", "conditions": "dose 4-16 µM, time 6-48 hrs"}, "NIH3T3 [24]": {"system": "NIH3T3", "assay": "Induction of cell cycle arrest in mouse NIH3T3 cells assessed as accumulation of hypodiploid cells at 24 uM incubated for 3 days by propidium iodide staining based flow cytometry analysis", "type": "toxicity", "conditions": "nih3t3, 72 h, time 3 day"}, "NIH3T3 [25]": {"system": "NIH3T3", "assay": "Induction of cell cycle arrest in mouse NIH3T3 cells assessed as accumulation of cells at G1 phase at 10 uM incubated for 1 day by propidium iodide staining based flow cytometry analysis (reference value: 54 %)", "type": "toxicity", "conditions": "nih3t3, 24 h"}, "NIH3T3 [26]": {"system": "NIH3T3", "assay": "Induction of cell cycle arrest in mouse NIH3T3 cells assessed as accumulation of cells at G1 phase at 10 uM incubated for 2 to 3 day by propidium iodide staining based flow cytometry analysis (reference value: 54 %)", "type": "toxicity", "conditions": "nih3t3, 10 µM, time 2-3 day"}, "NIH3T3 [27]": {"system": "NIH3T3", "assay": "Cytotoxicity against FGF stimulated mouse NIH3T3 cells assessed as growth inhibition incubated for 72 hrs by MTT assay", "type": "functional, cell-based", "conditions": "NIH3T3, 72 h"}, "NIH3T3 [28]": {"system": "NIH3T3", "assay": "Inhibition of CAMK-II in mouse NIH3T3 cells assessed as accumulation of granules in presence of fetal bovine serum by phase contrast microscopy analysis", "type": "cell-based"}, "NIH3T3 [29]": {"system": "NIH3T3", "assay": "Induction of apoptosis in mouse NIH3T3 cells assessed as decreased cell viability in presence of terminal transferase and Fl-dUTP by TUNEL staining based fluorescence microscopy analysis", "type": "toxicity", "conditions": "dose lower 10 µM, time lower 2 day, dose upper 24 µM, time upper 3 day"}, "NIH3T3 [30]": {"system": "NIH3T3", "assay": "Induction of cell cycle arrest in mouse NIH3T3 cells assessed as accumulation of cells at G1 phase at 24 uM incubated for 3 days by propidium iodide staining based flow cytometry analysis", "type": "toxicity", "conditions": "nih3t3, 72 h, time 3 day"}, "NIH3T3 [31]": {"system": "NIH3T3", "assay": "Induction of cell cycle arrest in mouse NIH3T3 cells assessed as decreased accumulation of cells at S phase at 10 uM incubated for 1 to 3 days by propidium iodide staining based flow cytometry analysis", "type": "toxicity", "conditions": "nih3t3, 10 µM, time 1-3 day"}},
  "note": "The source made the active and inactive calls. No cut-off for these calls is given here.",
  "data": [
    {"compound": "COc1ccc(S(=O)(=O)Nc2ccccc2CN(C)C/C=C/c2ccc(Cl)cc2)cc1", "values": [
      {"measurement": "Activity", "setting": "NIH3T3 [1]", "result": "Not Active"},
      {"measurement": "inhibition", "setting": "NIH3T3 [2]", "result": "inactive"},
      {"measurement": "inhibition", "setting": "NIH3T3 [3]", "result": "inactive"}
    ]},
    {"compound": "COc1ccc(S(=O)(=O)N(CCO)c2ccccc2CN(C)C/C=C/c2ccc(Cl)cc2)cc1", "values": [
      {"measurement": "inhibition", "setting": "NIH3T3 [4]", "result": "Active"},
      {"measurement": "Activity", "setting": "NIH3T3 [5]", "result": "Toxic"},
      {"measurement": "IC50", "setting": "[6]", "result": 1, "unit": "µM"},
      {"measurement": "IC50", "setting": "NIH3T3 [7]", "result": 6, "unit": "µM"},
      {"measurement": "IC50", "setting": "NIH3T3 [8]", "result": 6, "unit": "µM"},
      {"measurement": "Activity", "setting": "NIH3T3 [9]", "result": "Active"},
      {"measurement": "inhibition", "setting": "NIH3T3 [10]", "result": "Active"},
      {"measurement": "Activity", "setting": "NIH3T3 [11]", "result": "Active"},
      {"measurement": "Activity", "setting": "NIH3T3 [12]", "result": "Non-Toxic"},
      {"measurement": "Activity", "setting": "NIH3T3 [13]", "result": "Active"},
      {"measurement": "Activity", "setting": "NIH3T3 [14]", "result": 4, "unit": "%"},
      {"measurement": "Activity", "setting": "NIH3T3 [15]", "result": "Active"},
      {"measurement": "Activity", "setting": "NIH3T3 [16]", "result": 35, "unit": "%"},
      {"measurement": "IC50", "setting": "NIH3T3 [17]", "result": 6, "unit": "µM"},
      {"measurement": "inhibition", "setting": "NIH3T3 [18]", "result": "Active"},
      {"measurement": "Activity", "setting": "NIH3T3 [19]", "result": "Non-Toxic"},
      {"measurement": "IC50", "setting": "NIH3T3 [20]", "result": 12, "unit": "µM"},
      {"measurement": "IC50", "setting": "[21]", "result": 12, "unit": "µM"},
      {"measurement": "inhibition", "setting": "NIH3T3 [22]", "result": "Active"},
      {"measurement": "inhibition", "setting": "NIH3T3 [23]", "result": "inactive"},
      {"measurement": "Activity", "setting": "NIH3T3 [24]", "result": "Toxic"},
      {"measurement": "Activity", "setting": "NIH3T3 [25]", "result": 79, "unit": "%"},
      {"measurement": "Activity", "setting": "NIH3T3 [26]", "result": 95, "unit": "%"},
      {"measurement": "inhibition", "setting": "NIH3T3 [3]", "result": "Active"},
      {"measurement": "IC50", "setting": "NIH3T3 [27]", "result": 6, "unit": "µM"},
      {"measurement": "inhibition", "setting": "NIH3T3 [28]", "result": "Active"},
      {"measurement": "Activity", "setting": "NIH3T3 [29]", "result": "Dose-Dependent Effect and Tde"},
      {"measurement": "Activity", "setting": "NIH3T3 [30]", "result": "Toxic"},
      {"measurement": "Activity", "setting": "NIH3T3 [31]", "result": "Toxic"}
    ]}
  ]
}
